“Also recorded” adds a separate entry of the source. Marks after values point to notes of the source that are not given here.
How the values were obtained:
[1] = Long term stability: acid stability (2M HCl) at ambient temperature; type: physicochemical; settings: 2M HCl, dark, ambient, up to 14 days
Method: (§1) Osanetant p-toluenesulfonic acid Form 1 and osanetant benzenesulfonic acid Form 1 were tested for long-term stability across a number of different conditions, as detailed below.
Acid Stability at Ambient Temperature-Osanetant p-toluenesulfonic acid Form 1 and osanetant benzenesulfonic acid Form 1 were prepared at an osanetant content 10 times the normal working concentration then added to HPLC vials containing 2M HCl and stored in the dark at ambient laboratory conditions. Samples were diluted to 2 mg/mL for analysis and were taken after T=1, 2, 4, 7, and 14 days storage. […] The purity of the resulting material is described in Table 42: […]

[2] = Long term stability: oxidation (6% H2O2) at ambient temperature; type: physicochemical; settings: 6% H2O2, dark, ambient, up to 14 days
Method: as §1
Oxidation at Ambient Temperature-Osanetant p-toluenesulfonic acid Form 1 and osanetant benzenesulfonic acid Form 1 were prepared at an osanetant content 10 times the normal working concentration then added to HPLC vials containing 6% H2O2 and stored in the dark at ambient laboratory conditions. Samples were diluted to 2 mg/mL for analysis and were taken after T=1, 2, 4, 7, and 14 days storage. […] The purity of the resulting material is described in Table 46: […]

[3] = Long term stability: base (2M NaOH) at 60° C.; type: physicochemical; settings: 2M NaOH, 60° C., up to 14 days
Method: as §1
Base at 60° C.—Osanetant p-toluenesulfonic acid Form 1 and osanetant benzenesulfonic acid Form 1 were prepared at an osanetant content 10 times the normal working concentration then added to HPLC vials containing 2M NaOH and stored in a darkened oven at 60° C. Samples were diluted to 2 mg/mL for analysis and were taken after T=1, 2, 4, 7, and 14 days storage. […] The purity of the resulting material is described in Table 45: […]

[4] = Long term stability: thermal stability of solids at 60° C.; type: physicochemical; settings: solids, darkened oven at 60° C., up to 14 days
Method: as §1
Thermal stability of solids at 60° C.—Osanetant p-toluenesulfonic acid Form 1 and osanetant benzenesulfonic acid Form 1 were stored in a darkened oven at 60° C. in glass vials. Samples were taken after T=1, 2, 4, 7, and 14 days storage. […] The purity of the resulting material is described in Table 41: […]

[5] = Long term stability: oxidation (6% H2O2) at 60° C.; type: physicochemical; settings: 6% H2O2, 60° C., up to 14 days
Method: as §1
Oxidation at 60° C.—Osanetant p-toluenesulfonic acid Form 1 and osanetant benzenesulfonic acid Form 1 were prepared at an osanetant content 10 times the normal working concentration then added to HPLC vials containing 6% H2O2 and stored in a darkened oven at 60° C. Samples were diluted to 2 mg/mL for analysis and were taken after T=1, 2, 4, 7, and 14 days storage. […] The purity of the resulting material is described in Table 47: […]

[6] = Salt screen: XRPD of isolated solids after drying at 40° C. and at 40° C./75% RH; type: physicochemical; settings: for XRPD after drying at 40° C./75% RH: after 40° C. drying, dried at 40° C./75% RH for about 24 h, label = form after 40° C. drying; for XRPD after drying at 40° C.: isolated solids dried at 40° C. for about 24 h, label = wet form
Method: To approximately 20 mg of amorphous lyophilized osanetant was added 0.3 mL of solvent for liquid counterion experiments. 0.2 mL of solvent was employed for solid counterion experiments. […] To the stirring mixture was then added 1.05 mol eq. of the appropriate counterion. Where solid counterions were used, the vial which contained the counterion was washed in to the osanetant containing vial with 0.1 mL of the appropriate solvent. Additional solvent was added where necessary. The experiments were thermally cycled as follows: heated from 25 to 40° C. at a rate of 0.1° C./min; 1 h at 40° C.; Cool to 5° C. at a rate of 0.1° C.; 1 h at 5° C.; 40° C. at a rate of 0.1° C./min; […] The crystallization experiments were thermally cycled overnight, then slurries were isolated by centrifugation. XRPD analysis was carried out on any isolated solids or gums. The XRPD plate, and the isolated solids, were then dried at 40° C. for about 24 h, and XRPD analysis was repeated. The XRPD plate was then dried at 40° C./75% RH for about 24 h and XRPD analysis was again repeated. All other samples were allowed to evaporated at ambient temperature and pressure.

[7] = Long term stability: base (2M NaOH) at ambient temperature; type: physicochemical; settings: 2M NaOH, dark, ambient, up to 14 days
Method: as §1
Base at Ambient Temperature—Osanetant p-toluenesulfonic acid Form 1 and osanetant benzenesulfonic acid Form 1 were prepared at an osanetant content 10 times the normal working concentration then added to HPLC vials containing 2M NaOH and stored in the dark at ambient laboratory conditions. Samples were diluted to 2 mg/mL for analysis and were taken after T=1, 2, 4, 7, and 14 days storage. […] The purity of the resulting material is described in Table 44: […]

[8] = Solid form stability observations (scale up / polymorph work: drying, ambient conditions, aqueous media); type: physicochemical; settings: for form stability / re-hydration under ambient conditions: ambient conditions / room temperature and pressure
Method: Two anhydrous forms of the osanetant p-toluenesulfonic acid were synthesized. […] Form 6, described below, was a stable anhydrous form, but hydrated in water and aqueous solvent mixtures.
Advantageously, Form 1 (hydrate) and Form 6 (anhydrous) were stable on drying. Form 1 re-hydrated at room temperature and pressure after KF analysis, when it was heated in an oven to remove the water.
The experiment was cooled to 5° C. at a rate of 0.1° C./min and stirred at 5° C. for 18 h. The slurry was isolated be Buchner filtration: 42.5 mm Ø grade 1 Whatman filter paper; fast Filtration (<30 s); the cake was washed with 1 mL of ethyl acetate; the isolated solids were dried at 40° C. under vacuum for 72 h. […]

[9] = Thermodynamic solubility in water and pH buffers; settings: for Concentration: 24 h Solubility at 37° C.
[10] = Comparative studies: 7-day stability; type: physicochemical; settings: for HPLC Impurity Content: 7 Day Stability
Method: Osanetant p-toluenesulfonic acid Form 1, osanetant benzene sulfonic acid Form 3, osanetant naphthalene-2-sulfonic acid Form 3, and osanetant phosphoric acid Form 7 were compared. Osanetant phosphoric acid Form 7 was obtained when preparation of osanetant phosphoric acid Form 4 was repeated and found to be not reproducible, and Form 7 was determined to be a mixture of hydrates).
Thus, osanetant benzene sulfonic acid salt Form 1 and osanetant p-toluene sulfonic acid salt Form 1 were identified as advantageous salts.

CC(=O)N(C)C1(c2ccccc2)CCN(CCC[C@]2(c3ccc(Cl)c(Cl)c3)CCCN(C(=O)c3ccccc3)C2)CC1.O=S(=O)(O)c1ccccc1 [osanetant benzenesulfonic acid Form 1, (R)-N-(1-(3-(1-benzoyl-3-(3,4-dichlorophenyl)piperidin-3-yl)propyl)-4-phenylpiperidin-4-yl)-N-methylacetamide benzenesulfonic acid]
degradation on storage (purity) [1]: lack of degradation
degradation on storage (purity) [2]: lack of degradation
degradation on storage (purity) [3]: lack of degradation
degradation on storage (purity) [4]: lack of degradation
degradation on storage (purity) [5]: lack of degradation
XRPD after drying at 40° C./75% RH [6]: retained; also recorded: stable; also recorded: Form 1
XRPD after drying at 40° C. [6]: Form 1
degradation on storage (purity) [7]: lack of degradation

CC(=O)N(C)C1(c2ccccc2)CCN(CCC[C@]2(c3ccc(Cl)c(Cl)c3)CCCN(C(=O)c3ccccc3)C2)CC1.Cc1ccc(S(=O)(=O)O)cc1 [osanetant p-toluenesulfonic acid Form 5]
form stability / re-hydration under ambient conditions [8]: rehydrates to Form 1; also recorded: re-hydrated to Form 1; also recorded: hydrated at ambient conditions to Form 1

CC(=O)N(C)C1(c2ccccc2)CCN(CCC[C@]2(c3ccc(Cl)c(Cl)c3)CCCN(C(=O)c3ccccc3)C2)CC1.Cc1ccc(S(=O)(=O)O)cc1 [osanetant p-toluenesulfonic acid Form 6, (R)-N-(1-(3-(1-benzoyl-3-(3,4-dichlorophenyl)piperidin-3-yl)propyl)-4-phenylpiperidin-4-yl)-N-methylacetamide p-toluenesulfonic acid]
hydration / form conversion in water and aqueous solvent mixtures [8]: hydrated
form stability / re-hydration under ambient conditions [8]: stable
form on drying ([8]; drying (40° C. under vacuum where stated)): stable

CC(=O)N(C)C1(c2ccccc2)CCN(CCC[C@]2(c3ccc(Cl)c(Cl)c3)CCCN(C(=O)c3ccccc3)C2)CC1.O=P(O)(O)O [osanetant phosphoric acid Form 7]
disproportionation in buffer ([9]; pH 6.8 buffer): Disproportionation was observed
solid chemical stability ([10]; 7-day stability results, overall): Good and best chemical stability
solid form on 7-day stability ([10]; 7 days, elevated temperature where stated): loss in crystallinity at elevated temperature

CC(=O)N(C)C1(c2ccccc2)CCN(CCC[C@]2(c3ccc(Cl)c(Cl)c3)CCCN(C(=O)c3ccccc3)C2)CC1.O=S(=O)(O)O [osanetant sulfuric acid Form 2, (R)-N-(1-(3-(1-benzoyl-3-(3,4-dichlorophenyl)piperidin-3-yl)propyl)-4-phenylpiperidin-4-yl)-N-methylacetamide sulfuric acid]
XRPD after drying at 40° C./75% RH [6]: Form 3*

CC(=O)N(C)C1(c2ccccc2)CCN(CCC[C@]2(c3ccc(Cl)c(Cl)c3)CCCN(C(=O)c3ccccc3)C2)CC1.Cc1ccc(S(=O)(=O)O)cc1 [pTSA Form 6]
Concentration ([9]; pH 1.2): 45800 ng/mL
Concentration ([9]; pH 4.5): 63000 ng/mL
Concentration ([9]; pH 6.8): 35600 ng/mL
HPLC Impurity Content ([10]; 40° C./75% RH): 0.11 % w/w
HPLC Impurity Content ([10]; 80° C.): 0.88 % w/w
HPLC Impurity Content ([10]; Ambient Light): 0.11 % w/w

(R)-N-(1-(3-(1-benzoyl-3-(3,4-dichlorophenyl)piperidin-3-yl)propyl)-4-phenylpiperidin-4-yl)-N-methylacetamide naphthalene-2-sulfonic acid [osanetant naphthalene-2-sulfonic acid Form 1]
XRPD after drying at 40° C./75% RH [6]: retained; also recorded: stable; also recorded: Form 1
XRPD after drying at 40° C. [6]: retained; also recorded: Form 1

(R)-N-(1-(3-(1-benzoyl-3-(3,4-dichlorophenyl)piperidin-3-yl)propyl)-4-phenylpiperidin-4-yl)-N-methylacetamide naphthalene-2-sulfonic acid [osanetant naphthalene-2-sulfonic acid Form 2]
XRPD after drying at 40° C./75% RH [6]: retained; also recorded: stable; also recorded: Form 2*
XRPD after drying at 40° C. [6]: retained; also recorded: Form 2*

(R)-N-(1-(3-(1-benzoyl-3-(3,4-dichlorophenyl)piperidin-3-yl)propyl)-4-phenylpiperidin-4-yl)-N-methylacetamide naphthalene-2-sulfonic acid [osanetant naphthalene-2-sulfonic acid Form 4]
XRPD after drying at 40° C./75% RH [6]: retained; also recorded: stable; also recorded: Form 4
XRPD after drying at 40° C. [6]: retained; also recorded: Form 4
